Measurements published in patent publication US9686989B2, “Synergistic combination of a flurochloridone compound and zinc pyrithione for dry film protection” (Rohm and Haas Company, priority 2013, dated 2017).

System: Chlorella sp. ATCC 7516
Assay: Algal efficacy testing of dry paint film (modified ASTM 5589, 6-well plates)
Assay type: cell-based
Settings: 672 h, 4 weeks, pass level ≧75% inhibition
Protocol: Slurries containing 33% antimicrobial active ingredient (flurochloridone) were post added to a white, acrylic/silicone based outdoor paint free of biocides to give a total active ingredient concentration of 10000 and 1000 ppm respectively. KATHON™ 893T (100% OIT) was post added to a white, acrylic/silicone based outdoor paint free of biocides to give a total active ingredient concentration of 10000 and 1000 ppm respectively. These paints were then diluted with an antimicrobial free acrylic/silicone based paint and mixed to prepare targeted concentrations of antimicrobial compounds for the testing. The total biocides concentrations tested were 125, 250, 500, 1000, 2000 and 5000 ppm. After biocides addition or dilution, the paints were mixed 90 seconds with the horse power shaker (AXEL 75M3372/Agitateur SO-10MI) until uniformity was achieved. […]
Each well that contains a tested coupon was inoculated with 1750 μl of algal suspensions (1×10^6 cfu/ml) making sure that the whole surface (paint film as well as the agar surrounding it) was evenly covered. […] The total area inhibited was evaluated at the end of each week according to percent area covered in 5% increments
At the end of the four week incubation period, the samples were scored for percent inhibition regarding color intensity compared to the blank sample. […]
The SI is calculated based on F. C. […]

Question: With `CCCCCCCCn1sccc1=O` [OIT, 2-n-octyl-4-isothiazolin-3-one] as the compound, how does the inhibition at 2000 ppm (total conc 2000 ppm in paint) read?
Answer: The inhibition at 2000 ppm was 65%.

Question: For `O=C1C(Cl)C(CCl)CN1c1cccc(C(F)(F)F)c1` (centres unmarked) [Flurochloridone, 3-chloro-4-(chloromethyl)-1-[3-(trifluoromethyl)phenyl]-2-pyrrolidinone], which inhibition at 5000 ppm (total conc 5000 ppm in paint) is on record?
Answer: Its inhibition at 5000 ppm is 90%.
